# Experimental data: patent US6448472B1, “Genetic and epigenetic manipulation of ABC transporters and ectophosphatases for the conference of hormone and herbicide resistance” (Board of Regents, The University of Texas System, priority 1999, dated 2002)
# Where two headings read alike, the source gives them in different places.
# Columns and labels:
# [1] = system: S. cerevisiae yeast cells; experiment: Yeast growth in suspension with ATP and drug selection (turbidity); format: cell-based, Saccharomyces cerevisiae; settings: 100 mM ATP, 48 hours
# Experimental: Cell lines: Cell lines were the same as those described above in Example 2 and 3. YMR4 MDR1 is the phosphatase mutant yeast strain overexpressing AtPGP-1; YMR4 pVT101 contains vector alone; INVSC MDR1 is the wild-type yeast strain overexpressing AtPGP-1; and INVSC pVT101 contains vector alone.
# Selection in drug: To create drug resistant yeast strains, all four cell lines were grown up in the presence of 500 ng/ml of cycloheximide, and transferred to other cycloheximide containing plates after a period of four to six days. This transfer of cell lines and subculturing continued such that the yeast cells grew in the presence of cycloheximide for a period of at least a month.
# Cells cultured in media alone: To create cell lines that had not been preselected for their ability to grow in drug, yeast strains were grown on plates containing YNB (Bio101, Vista, Calif.) without uracil (-URA) to maintain the presence of the vector (which supplies URA) without any drugs added.
# Growth of cells in suspension for ATP and drug selection experiments: Cells were transferred into 5 ml YNB-URA liquid media for turbidity measurements. All cell lines (both non-drug selected and drug-selected) were grown in media with the addition of either nothing, 500 ng/ml cycloheximide, 100 mM ATP, or 500 ng/ml cycloheximide and 100 mM ATP. Turbidity readings were taken after 48 hours.
# [2] = system: Arabidopsis thaliana plants; experiment: Arabidopsis germination selection assay of transgenic plants (Example 2); format: in vivo; settings: cycloheximide 250 ng/ml
# Source text: Expression of apyrase and AtPGP-1 in plants: The expression of apyrase in plants is as described above in Example 1. Similar methods were employed to express AtPGP-1 in Arabidopsis thaliana plants with the following modifications. The AtPGP-1 coding region was subcloned into a pBIN vector lacking the GUS gene as described in Sidler, et al., 1998, The Plant Cell 10:1623-1636. This plasmid was then transformed into A. tumefaciens as described above, which was used to infect root calli to produce transgenic plants expressing AtPGP-1.
# Plant growth: Arabidopsis thaliana seeds were sown in a solid germination media containing MS salt, 2% sucrose, 0.8% agar, and vitamins (Valvekens, D. et al., […], Proc. Natl. Acad. Sci. USA 85:5536-5540. For selection assays, cycloheximide was spread on the media to achieve a final concentration of 250 ng/ml. Plant growth was measured by germination percentage after 6-30 days.
# [3] = system: yeast mutant YMR4; experiment: Yeast growth in suspension, salvage pathway experiments (adenosine, phosphate); format: cell-based, Saccharomyces cerevisiae; settings: 72 hours; for effect of addition to the media on resistance to cycloheximide: YMR4 cells, 3 mM adenosine, potassium phosphate; for effect of addition on growth in drug: cells overexpressing AtPGP-1 grown in cycloheximide
# Experimental: Growth of cell lines in suspension for salvage pathway experiments: All cell lines were grown in liquid media either containing drug (for the drug selected lines) or not containing drug (for the non-drug selected lines). When the cultures reached a turbidity of 1.00 as measured at a wavelength of 600 in a spectrophotometer (OD600=1.00), 10 μl of each culture was then removed and placed in either media with nothing added, 3 mM potassium phosphate; 3 mM adenosine; 9 mM potassium phosphate and 3 mM adenosine (for controls); potassium phosphate and cycloheximide; adenosine and cycloheximide; adenosine, cycloheximide, and potassium phosphate. Cell cultures were further grown for 72 hours, and their turbidity was determined by OD600 readings on a spectrophotometer.
# [4] = system: Arabidopsis thaliana plants; format: in vivo; settings: after 10-20 days
# Experimental: Plant Growth: Arabidopsis seeds were sown in a solid germination media containing MS salts (Sigma Chemical, St. Louis, Mo.), 2% sucrose, 0.8% agar, and vitamins (Valvekens, D. et al., 1992, Proc. Natl. Acad. Sci. USA 85:5536-5540). For selection assays, one of the following, or a combination of both, Was added to media (cooled to less than 50° C. before adding) immediately prior to pouring into plates: cycloheximide at a final concentration of 500 ng/ml; α,β-methyleneadenosine 5′-diphosphate at a final concentration of 1 mM. Plant growth was measured by germination percentage after 10-20 days.
# All other materials and methods were discussed above in Example 2.
# [5] = system: Saccharomyces cerevisiae INVSC1 and YMR4; experiment: Yeast growth selection assay on plates and in liquid media (turbidity OD600); format: cell-based; settings: cycloheximide 500 ng/ml
# Source text: Expression of AtPGP-1 in yeast: The AtPGP-1 cDNA (Arabidopsis thaliana MDR gene, accession #X61370) was subcloned into pVT101 downstream of the ADH promoter to create the AtPGP-1/pVT101 construct. AtPGP-1/pVT101 and pVT101 were transformed into Saccharomyces cerevisiae INVSC1 (genotype: MATα, his3-Δ1, leu2, trp1-289, ura3-52) and YMR4 (genotype: MATαhis3-11,15, leu2-3, 112ura3Δ5, can Res pho5, 3::ura3Δ1) by a PEG lithium acetate procedure (Eble, R., 1992, Biotechniques 13:18-20) and selected on uracil dropout medium.
# Yeast Growth: Yeast were grown at 30° C. under conditions of constant selection for uracil auxotrophy. YNB (Bio101, Vista, Calif.) supplemented with CSM (uracil dropout) and 2% glucose was used to grow strains having pVT101 constructs. Cycloheximide (Sigma Chemical, St. Louis, Mo.) was added to liquid media or spread on solid media to achieve a final concentration of 500 ng/ml. Nigericin (Sigma Chemical, St. Louis, Mo.) was added to liquid media or spread on solid media to achieve a final concentration of 25 μg/ml. Yeast strains used in cycloheximide selection assays were always propagated in the presence of the cycloheximide on plates and then streaked onto new plates containing drug or no drug, such that induced resistance existed in each strain at the time of the start of the assay. For selection assays on plates, single colonies were streaked; for selection in liquid media 0.01 ml of saturated culture was added to fresh media containing the drug. The plates shown in figures were grown for 3-5 days before photographs were taken. Yeast selection assays in liquid media were quantitated by turbidity as measured by absorbance at OD600.
# [6] = YMR4 ecto-phosphatase deficient mutant (vector alone), nigericin 25 μg/ml
# [7] = YMR4 expressing AtPGP-1, nigericin 25 μg/ml
smiles,measurement,setting,value
Nc1ncnc2c1ncn2[C@@H]1O[C@H](COP(=O)(O)OP(=O)(O)OP(=O)(O)O)[C@@H](O)[C@H]1O [ATP],growth in high levels of ATP,[1]; cells not previously selected in drug,able to grow
same,growth in high levels of ATP,"[1]; cells previously selected in cycloheximide, not overexpressing AtPGP-1",not able to grow
CC(C)=CCNc1ncnc2nc[nH]c12 [N6-(2-isopentenyl) adenine],resistance of plants to the drug (germination),[2]; plants over-expressing AtPGP-1,confer resistance
same,resistance of plants to the drug (germination),[2]; plants over-expressing apyrase,The same result was obtained
Nc1ncnc2c1ncn2[C@@H]1O[C@H](CO)[C@@H](O)[C@H]1O [adenosine],effect of addition to the media on resistance to cycloheximide,[3],did not enhance resistance
same,effect of addition on growth in drug,[3],slightly inhibitory
C[C@@H]1C[C@@H]([C@H](O)CC2CC(=O)NC(=O)C2)C(=O)[C@@H](C)C1 [cycloheximide],germination rate,[4]; AtPGP-1 overexpressing (MDR OE) plants,50%
same,germination rate,[4]; wild-type plants,2%
same,resistance of plants to the drug (germination),[2]; plants over-expressing AtPGP-1,confer resistance
same,resistance of plants to the drug (germination),[2]; plants over-expressing apyrase,conference of resistance
same,effect of AtPGP-1 on growth in the presence of drug,[5]; INVSC1 wild-type yeast with AtPGP-1,did not have any effect
same,growth in the presence of drug,[5]; INVSC1 wild-type yeast,did grow
same,growth in the presence of drug,[5]; [6],did not grow
same,growth in the presence of drug,[5]; [7],enabled the yeast mutant to grow
CO[C@@H]1C[C@@H](C[C@H]2CC[C@H](C)[C@H]([C@@H](C)C(=O)O)O2)O[C@]2(O[C@](C)([C@H]3CC[C@@](C)([C@@H]4O[C@@H]([C@H]5O[C@@](O)(CO)[C@H](C)C[C@@H]5C)C[C@@H]4C)O3)C[C@H]2C)[C@@H]1C [nigericin],growth in the presence of drug,[5]; [6],reduced growth
same,growth in the presence of drug,[5]; [7],The same result was obtained
"Nc1ncnc2c1ncn2[C@@H]1O[C@H](COP(=O)(O)CP(=O)(O)O)[C@@H](O)[C@H]1O [phosphatase inhibitor, α,β-methyleneadenosine 5′-diphosphate]",germination rate,"[4]; AtPGP-1 overexpressing (MDR OE) plants, cycloheximide 500 ng/ml, phosphatase inhibitor 1 mM",83%
same,germination rate,"[4]; wild-type plants, cycloheximide 500 ng/ml, phosphatase inhibitor 1 mM",90%
"O=P(O)(O)O [phosphate, potassium phosphate]",effect of addition to the media on resistance to cycloheximide,[3],did not enhance resistance
same,effect of addition on growth in drug,[3],slightly inhibitory
